# From patent publication US20150231093A1, “METHODS AND COMPOSITIONS FOR COUNTERMEASURES AGAINST RADIATION” (THE UNIVERSITY OF CHICAGO, priority 2014, published 2015)
# Assays:
# [1] = Tolerability of the i.p. doses used in mice
# Method: For in vivo studies, mice were injected i.p. with a final volume of 0.2 ml for all single and drug combinations used. […] Captopril was injected at a final concentration of 200 mg/kg body weight, MESNA was injected at a final concentration of 300 mg/kg body weight, and NAC was injected at a concentration of 400 mg/kg body weight.
# [2] = test system: SA-NH murine sarcoma cells; assay: In vitro cell survival (colony) assay after 4 Gy, SA-NH cells; format: cell-based; conditions: 4 mM, 30 min prior to 4 Gy
# Excerpt: (§1) In Vitro Cell Survival Assay. […] Unirradiated cells served as controls. Immediately following irradiation, cells were counted, diluted, and known numbers seeded into 100-mm tissue culture dishes to allow the development of 50 to 150 colonies per dish. Colonies were stained with 20% crystal violet and scored 12 days after plating.
# [3] = test system: human microvascular endothelial cells (HMEC); assay: In vitro cell survival (colony) assay after 4 Gy, HMEC; format: cell-based; conditions: 4 mM, 30 min prior to 4 Gy
# Excerpt: as §1
# [4] = test system: mouse embryo fibroblasts (MEF); assay: In vitro cell survival (colony) assay after 4 Gy, MEF; format: cell-based; conditions: 4 mM, 30 min prior to 4 Gy
# Excerpt: as §1
# [5] = 250 mg/kg i.p. 24 h following 7 Gy, counted 13 days after irradiation
# [6] = test system: mouse splenocytes; conditions: i.p. 24 h following 7 Gy; amifostine 400 mg/kg, metformin 250 mg/kg
smiles,measurement,setting,value
"C[C@H](CS)C(=O)N1CCC[C@H]1C(=O)O [Captopril, captopril]",toxicity of dose used,[1]; 200 mg/kg body weight,non-toxic
"O=S(=O)([O-])CCS.[Na+] [MESNA, sodium 2-sulfanylethanesulfonate]",toxicity of dose used,[1]; 300 mg/kg body weight,non-toxic
"NCCCNCCS [WR1065, 2-[(aminopropyl)amino] ethanethiol]",protection ratio,[2],1.6
same,protection ratio,[3],1.8
same,protection ratio,[4],1.9
"CN(C)C(=N)NC(=N)N.Cl [Metformin, 1,1-Dimethylbiguanide hydrochloride]",average number of spleen nodules,[5],18
same,protection of irradiated animals (in words),[6],significantly protected
"CC(=O)N[C@@H](CS)C(=O)O [NAC, N-acetyl-cysteine]",toxicity of dose used,[1]; 400 mg/kg body weight,non-toxic
